This is an account of results in article PMC6680845, “Screening and Evaluation of Xanthine Oxidase Inhibitors from Gnetum parvifolium in China” (Molecules, 2019).

Broadly, the EC50 is the concentration at which the effect is half-maximal. Higher therefore signals lower potency in that assay. The term Vmax denotes the rate approached at saturating substrate.

Assay [1] can be described thus: DPPH free radical scavenging test. The conditions noted are these: DPPH 0.1 mM in methanol, 30 min in dark, 517 nm. As to the method:
The DPPH and ABTS· radical scavenging tests were measured according to the reported method with some modifications. For DPPH test, 0.5 mL of sample with different concentrations were mixed thoroughly with 2 mL of DPPH solution (0.1 mM in methanol). The mixture was then kept in dark for 30 min. Finally, the absorbance of solution was measured by an UV-Vis Spectrophotometer (UV2700, Shimadzu, Kyoto, Japan) at 517 nm.
(§1) For ABTS test, ABTS solution (2 mL of ABTS stock solution (0.01 M) added to 58 mL phosphate buffers, pH 7.0) was incubated for 12 h and diluted with methanol for use. Then, 0.5 mL of samples with different concentrations were mixed thoroughly with 2 mL of ABTS solution. The mixture was kept in dark for 30 min, and the absorbance at 734 nm was measured by an UV-Vis Spectrophotometer. The same amount of water was used as control instead of sample. All experiments were performed in triplicate. The scavenging activity of DPPH and ABTS· radicals was calculated by the following formula: Radical scavenging rate% = 1 − As/A0 × 100 (2) where A0 was the absorbance of control and As was the absorbance of sample.
(In general: Loss of DPPH colour is used to gauge radical scavenging.)

For the next assay, the target named is xanthine oxidase (XO) (Bos taurus, UniProt P80457). Put plainly: XO inhibition type and kinetics (Lineweaver-Burk and secondary plots). The conditions noted are these: for mode of XO inhibition: Lineweaver-Burk plots. It counts as biochemical. As to the method: In order to further exploring the inhibitory activities of four inhibitors, the inhibition type and inhibition kinetics constants were assayed.
Chain of xanthine oxidase (XO) (P80457 2-1332): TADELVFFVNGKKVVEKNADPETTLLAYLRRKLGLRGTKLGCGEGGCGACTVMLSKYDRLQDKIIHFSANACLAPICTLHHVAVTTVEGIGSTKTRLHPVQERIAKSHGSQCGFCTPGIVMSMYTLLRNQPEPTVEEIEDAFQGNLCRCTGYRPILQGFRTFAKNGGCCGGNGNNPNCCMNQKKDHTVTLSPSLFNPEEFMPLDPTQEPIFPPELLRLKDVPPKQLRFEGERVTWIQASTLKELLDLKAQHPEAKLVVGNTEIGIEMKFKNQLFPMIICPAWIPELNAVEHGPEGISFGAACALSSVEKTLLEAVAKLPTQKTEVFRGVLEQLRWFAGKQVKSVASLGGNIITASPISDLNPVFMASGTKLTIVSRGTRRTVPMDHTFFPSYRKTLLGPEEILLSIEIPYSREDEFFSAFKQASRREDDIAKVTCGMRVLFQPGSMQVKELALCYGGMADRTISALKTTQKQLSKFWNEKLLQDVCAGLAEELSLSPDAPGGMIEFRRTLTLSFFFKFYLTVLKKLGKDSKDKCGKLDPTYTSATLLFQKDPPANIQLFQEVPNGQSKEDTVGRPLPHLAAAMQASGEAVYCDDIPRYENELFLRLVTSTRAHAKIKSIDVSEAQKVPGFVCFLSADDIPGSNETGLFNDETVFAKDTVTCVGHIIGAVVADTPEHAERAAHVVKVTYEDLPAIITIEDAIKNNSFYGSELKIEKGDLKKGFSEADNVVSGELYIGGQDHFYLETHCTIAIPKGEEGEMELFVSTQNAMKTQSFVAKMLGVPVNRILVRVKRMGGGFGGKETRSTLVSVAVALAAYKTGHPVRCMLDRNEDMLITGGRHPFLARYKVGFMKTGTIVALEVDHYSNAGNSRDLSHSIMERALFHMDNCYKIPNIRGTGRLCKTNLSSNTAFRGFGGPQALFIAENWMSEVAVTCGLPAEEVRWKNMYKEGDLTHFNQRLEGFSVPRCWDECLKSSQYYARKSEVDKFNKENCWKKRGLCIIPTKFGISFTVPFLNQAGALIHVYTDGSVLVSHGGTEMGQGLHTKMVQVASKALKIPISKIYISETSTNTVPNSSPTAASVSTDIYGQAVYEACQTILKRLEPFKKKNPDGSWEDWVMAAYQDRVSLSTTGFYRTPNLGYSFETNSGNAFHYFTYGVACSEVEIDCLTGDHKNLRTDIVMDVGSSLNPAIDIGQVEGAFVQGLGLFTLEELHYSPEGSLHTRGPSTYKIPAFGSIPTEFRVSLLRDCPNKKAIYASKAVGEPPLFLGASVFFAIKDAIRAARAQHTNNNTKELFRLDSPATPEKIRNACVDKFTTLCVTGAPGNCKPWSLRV
For inhibition test, 20 μL of XO solution (1 mg/mL in buffers) and 1 mL of sample with different concentrations were mixed in a quartz cuvette. Then, 1 mL of […] (1 mg/mL) was added to start reaction and the increase of absorbance at 295 nm in 100 s was recorded by an UV-Vis Spectrophotometer (UV2700, Shimadzu, Kyoto, Japan). […] All experiments were performed in triplicate. The inhibition of XO was calculated by the following formula. Inhibition% = (1 − ΔAs/ΔA0) × 100 (1) where ΔAs and ΔA0 are the changes of absorbance for sample and blank, respectively.

A short description of assay [2]: ABTS radical scavenging test. To be noted: 30 min in dark, 734 nm. The procedure: as §1

Regarding `COc1cc(/C=C/c2cc(O)cc(O)c2)ccc1O` [Isorhapontigenin], the EC50 in assay [1] was 1450 µM; in assay [2], 300 µM. For the same molecule, the “mode of XO inhibition” value on xanthine oxidase (XO) is “uncompetitive type”. The Vmax at xanthine oxidase (XO) (inhibitor [C] 2.6 μM) stood at 0.168 mmol/min; at xanthine oxidase (XO) (inhibitor [C] 3.9 μM) it was 0.134 mmol/min; at xanthine oxidase (XO) (inhibitor [C] 5.3 μM), 0.061 mmol/min.
`Oc1cc(O)cc(/C=C/c2ccc(O)c(O)c2)c1` [Piceatannol] came in with an EC50 in assay [1] of 40 µM. Besides, the “mode of XO inhibition” value at xanthine oxidase (XO) is listed as “competitive type”. Further, the values for the Vmax at xanthine oxidase (XO) (inhibitor [C] 3.3 μM), on xanthine oxidase (XO) (inhibitor [C] 4.9 μM) and at xanthine oxidase (XO) (inhibitor [C] 6.6 μM) were 0.160 mmol/min, 0.164 mmol/min and 0.157 mmol/min, respectively.
Take `Oc1ccc(/C=C/c2cc(O)cc(O)c2)cc1` [Resveratrol]: the “mode of XO inhibition” value at xanthine oxidase (XO) was “uncompetitive type”. For the same molecule, the results for the Vmax on xanthine oxidase (XO) (inhibitor [C] 3.3 μM), at xanthine oxidase (XO) (inhibitor [C] 4.9 μM) and on xanthine oxidase (XO) (inhibitor [C] 6.6 μM) were 0.173 mmol/min, 0.106 mmol/min and 0.088 mmol/min, respectively.
